In patent US20030129205A1, “Composition and method for the prevention and/or the treatment of allergy” (priority 2000, published 2003):

B1: myoglobin: Sheep myoglobin purchased from Sigma Chemicals; red pigment, oxygen reservoir of muscle cells (protein, UniProt P02190 2-154, looked up)
Myoglobin: GLSDGEWQLVLNAWGKVEADVAGHGQEVLIRLFTGHPETLEKFDKFKHLKTEAEMKASEDLKKHGNTVLTALGGILKKKGHHEAEVKHLAESHANKHKIPVKYLEFISDAIIHVLHAKHPSDFGADAQGAMSKALELFRNDMAAQYKVLGFQG

Experiments:
CD4+ T cells = assay: in vitro T cell proliferation assay ([3H]thymidine incorporation) with T cells of immunized Balb/c mice; format: cell-based, mouse; conditions: for proliferation of T cells from immunized mice: Balb/c (H-2d) mice immunized in footpad with 100 μg in complete Freund's adjuvant, lymph node CD4+ T cells restimulated in vitro with myoglobin or Der p II; for immunogenicity: Balb/c mice, subcutaneous immunization
Experimental: In order to determine experimentally whether this sequence homology could result in functional cross-reactivity between Der p II and myoglobin, mice were immunized by subcutaneous injections of FIS (SEQ ID NO. 2) or myoglobin.
Balb/c mice (H-2^d) were injected once in the footpad with 50 μl of a solution containing 100 μg of peptide or myoglobin emulsified in complete Freund's adjuvant. Ten days later, regional lymph nodes were retrieved, teased and extensively washed with sterile saline to recover cells. The cell suspension was then washed in RPMI buffer (Gibco). Pure CD4^+ T cell suspensions were obtained by negative selection using antibodies towards CD45R, CD11b and CD11c, all conjugated to magnetic beads according to the manufacturer's instructions (Miltenyi Biotech GmbH, Germany).
(§1) Functional cross-reactivity between Der p II, FIS and myoglobin was checked by in vitro proliferation assays. Thus, the T cell suspension was adjusted to 5×10^6 cells per ml in RPMI 1640 buffer supplemented with 2 mM glutamine, 100 U penicillin/ml, 100 jug streptomycin/ml, 5% heat-inactivated fetal calf serum and 5×10^−5 M 2-mercaptoethanol. One hundred μl of the T-cell-enriched fraction ([…]) was cultured in 100 μl of the above-described medium containing different concentrations of test peptide or myoglobin, and mitomycin-C treated syngeneic naive spleen cells as a source of APC (4×10^5 per well). Incubation was carried out into a humidified atmosphere of 5% CO2 in air for 4 days, and cells were pulsed during a final 18-h incubation with 1 μCi of [^3H] thymidine per well. The cells were then harvested onto glass fibres using a multiple-cell harvester. Radioactivity incorporated into proliferating cells was determined in a liquid scintillation counter. All tests were carried out in triplicate. The proliferative response was expressed as c.p.m.×10 after subtracting background value incorporation in the absence of antigen.

mouse T cells = assay: T cell proliferation assay in mice of additional H-2 haplotypes; format: cell-based; conditions: H-2b (C57BL/6), H-2k (C3H), H-2d (SJL) as printed; significant proliferative response for the three haplotypes
[1] = system: T cells from peripheral blood; assay: proliferation assay with T cells from peripheral blood of atopic individuals; format: cell-based
Experimental: as §1
Moreover, T cells were prepared from the peripheral blood of atopic individuals. Thus, a 50-ml sample of peripheral blood was obtained in heparin. The blood sample was diluted vol/vol in RPMI 1640 and applied to a Ficoll-Hypaque density gradient. […]

Molecule | proliferation of T cells from immunized mice (CD4+ T cells) | immunogenicity (CD4+ T cells) | recognition of T cell epitope in additional mouse H-2 haplotypes (mouse T cells) | proportion of human subjects recognising the T cell epitope [1]
FISEAIIHVLHSR (Physeter catodon) | proliferated to myoglobin and to Der p II | immunogen |  | 
SEPCIIHRGKP (Dermatophagoides) [SEQ ID NO. 1] |  |  | recognised in the context of three additional mouse H-2 haplotypes | more than 85%
B1 | proliferated to myoglobin and to Der p II | immunogen |  | 
